Legend:
[1] = tested on: Wnt activity (Sp5-Luc reporter, SW480 colon carcinoma cells); assay: Screening assay for Wnt activity: Sp5-Luc reporter gene assay in SW480 cells; type: cell-based; conditions: Homo sapiens, 42 h incubation, luminescence
Source text: The screening assay for Wnt activity is described as follows. Reporter cell lines can be generated by stably transducing cancer cell lines (e.g., colon cancer) or primary cells (e.g., IEC-6 intestinal cells) with a lentiviral construct that includes a Wnt-responsive promoter driving expression of the firefly luciferase gene.
SW480 colon carcinoma cells were transduced with a lentiviral vector expressing luciferase with a human Sp5 promoter consisting of a sequence of eight TCF/LEF binding sites. SW480 cells stably expressing the Sp5-Luc reporter gene and a hygromycin resistance gene were selected by treatment with 150 μg/ml of hygromycin for 7 days. These stably transduced SW480 cells were expanded in cell culture and used for all further screening activities. For Sp5-Luc reporter gene assays, the cells were plated at 10,000 cells/well in 96-well plates with growth medium containing 10% fetal calf serum and incubated overnight at 37° C. and 5% CO2. Each compound was dissolved in DMSO as a 10 mM stock in standard j-vials and used to prepare compound source plates in dose-response format with 3-fold serial dilutions and a 10 mM top concentration. Compound transfer from serially diluted source plates to assay plates containing the cells was accomplished using a pintool (Multimek 96, Beckman equipped with V&P Scientific FP1S50H pins) based liquid handling protocol. This protocol used a slotted pin to transfer 50 nl of compound from a source plate well to an assay plate well containing 50 μl of cells in growth medium. […] Control wells received 50 nl of DMSO treatment for normalization and calculating IC50 values. The treated cells were incubated at 37° C. and 5% CO2 for an additional forty-two hours. Following incubation, the growth medium was removed and 50 μl of BrightGlo luminescence reagent (Promega) was added to each well of the 96-well assay plates. The plates were placed on an orbital shaker for 5 min and then luminescence was quantified on the Victor3 (Perkin Elmer) plate reader. Readings were normalized to DMSO only treated cells, and normalized activities were utilized for IC50 calculations using the dose-response log (inhibitor) vs. response-variable slope (four parameters) nonlinear regression feature available in GraphPad Prism 5.0 or 6.0.

[2] = tested on: primary human fibroblasts derived from IPF patients (LL29 cells); assay: Inhibition of fibrosis: TGF-β1-treated primary human fibroblasts from IPF patients (LL29), αSMA staining; type: cell-based; conditions: Fibroblast, 96 h, TGF-β1 20 ng/mL, 4 days, % αSMA-positive cells
Source text: The above synthesized compounds were screened using primary human fibroblasts (derived from IPF patients) treated with TGF-β1 to determine their ability to inhibit the fibrotic process.
Primary human fibroblasts derived from IPF patients (LL29 cells) [^1Xiaoqiu Liu, et. al., “Fibrotic Lung Fibroblasts Show Blunted Inhibition by cAMP Due to Deficient cAMP Response Element-Binding Protein Phosphorylation”, Journal of Pharmacology and Experimental Therapeutics (2005), 315(2), 678-687; ^2Watts, K. L., et. al., “RhoA signaling modulates cyclin D1 expression in human lung fibroblasts; implications for idiopathic pulmonary fibrosis”, Respiratory Research (2006), 7(1), 88] were obtained from American Type Culture Collection (ATCC) and expanded in F12 medium supplemented with 15% Fetal Bovine Serum and Penicillin/Streptomycin.
Each compound was dissolved in DMSO as a 10 mM stock and used to prepare compound source plates. Serial dilution (1:2, 11-point dose-response curves from 10 μM to 1.87 nM) and compound transfer was performed using the ECHO 550 (Labcyte, Sunnyvale, Calif.) into 384-well clear bottom assay plates (Greiner Bio-One) with appropriate DMSO backfill for a final DMSO concentration of 0.1%. LL29 cells were plated at 1,500 cells/well in 80 μl/well F12 medium supplemented with 1% Fetal Bovine Serum. One hour after addition of the cells, TGF-β1 (Peprotech; 20 ng/mL) was added to the plates to induce fibrosis (ref 1 and 2 above). Wells treated with TGF-β1 and containing DMSO were used as controls. Cells were incubated at 37° C. and 5% CO2 for 4 days. Following incubation for 4 days, SYTOX green nucleic acid stain (Life Technologies [Thermo Fisher Scientific]) was added to the wells at a final concentration of 1 uM and incubated at room temperature for 30 min. Cells were then fixed using 4% formaldehyde (Electron Microscopy Sciences), washed 3 times with PBS followed by blocking and permeabilization using 3% Bovine Serum Albumin (BSA; Sigma) and 0.3% Triton X-100 (Sigma) in PBS. Cells were then stained with antibody specific to α-smooth muscle actin (αSMA; Abcam) (ref 1 and 2 above) in 3% Bovine Serum Albumin (BSA; Sigma) and 0.3% Triton X-100 (Sigma) in PBS, and incubated overnight at 4° C. Cells were then washed 3 times with PBS, followed by incubation with Alexa Flor-647 conjugated secondary antibody (Life Technologies [Thermo Fisher Scientific]) and DAPI at room temperature for 1 hour. Cells were then washed 3 times with PBS and plates were sealed for imaging. αSMA staining was imaged by excitation at 630 nm and emission at 665 nm and quantified using the Compartmental Analysis program on the CellInsight CX5 (Thermo Scientific). Dead or apoptotic cells were excluded from analysis based on positive SYTOX green staining. % of total cells positive for αSMA were counted in each well and normalized to the average of 11 wells treated with TGF-β1 on the same plate using Dotmatics' Studies Software. The normalized averages (fold change over untreated) of 3 replicate wells for each compound concentration were used to create dose-responses curves and EC50 values were calculated using non-linear regression curve fit in the Dotmatics' Studies Software. The EC50 values are reported.

SMILES | IC50 [1] [nM] | EC50 [2] [nM]
c1ccc(CNCc2cncc(-c3ccc4[nH]nc(-c5nc6c(-c7cccnc7)nccc6[nH]5)c4c3)c2)cc1 [Compound 101, N-Benzyl-1-(5-(3-(4-(pyridin-3-yl)-1H-imidazo[4,5-c]pyridin-2-yl)-1H-indazol-5-yl)pyridin-3-yl)methanamine] | 47 | 2430
Fc1cccc(-c2nccc3[nH]c(-c4n[nH]c5ccc(-c6cn[nH]c6)cc45)nc23)c1 [Compound 1771, 2-(5-(1H-Pyrazol-4-yl)-1H-indazol-3-yl)-4-(3-fluorophenyl)-1H-imidazo[4,5-c]pyridine] | 4 | 9990
CN(C)c1cncc(-c2ccc3[nH]nc(-c4nc5c(-c6ccccc6F)nccc5[nH]4)c3c2)c1 [Compound 59, 5-(3-(4-(2-Fluorophenyl)-1H-imidazo[4,5-c]pyridin-2-yl)-1H-indazol-5-yl)-N,N-dimethylpyridin-3-amine] | 9.4 | 18
O=C(Nc1cncc(-c2ccc3[nH]nc(-c4nc5c(-c6cccs6)nccc5[nH]4)c3c2)c1)C1CCCC1 [Compound 307, N-(5-(3-(4-(Thiophen-2-yl)-1H-imidazo[4,5-c]pyridin-2-yl)-1H-indazol-5-yl)pyridin-3-yl)cyclopentanecarboxamide] | 34.8 | 422
CN(C)Cc1cncc(-c2ccc3[nH]nc(-c4nc5c(N6CCCCC6)nccc5[nH]4)c3c2)c1 [Compound 169, N,N-Dimethyl-1-(5-(3-(4-(piperidin-1-yl)-1H-imidazo[4,5-c]pyridin-2-yl)-1H-indazol-5-yl)pyridin-3-yl)methanamine] | 4020 | 171
NC1CN(c2cncc(-c3ccc4[nH]nc(-c5nc6c(-c7cccc(F)c7)nccc6[nH]5)c4c3)n2)C1 [Compound 1774, 1-(6-(3-(4-(3-Fluorophenyl)-1H-imidazo[4,5-c]pyridin-2-yl)-1H-indazol-5-yl)pyrazin-2-yl)azetidin-3-amine] | 171 | 102
Fc1ccc(-c2nccc3[nH]c(-c4n[nH]c5ccc(-c6cncnc6)cc45)nc23)cc1 [Compound 52, 4-(4-Fluorophenyl)-2-(5-(pyrimidin-5-yl)-1H-indazol-3-yl)-1H-imidazo[4,5-c]pyridine] | 25 | 539
O=C(Nc1cncc(-c2ccc3[nH]nc(-c4nc5c(-c6ccsc6)nccc5[nH]4)c3c2)c1)C1CCCC1 [Compound 255, N-(5-(3-(4-(Thiophen-3-yl)-1H-imidazo[4,5-c]pyridin-2-yl)-1H-indazol-5-yl)pyridin-3-yl)cyclopentanecarboxamide] | 59.4 | 1220
CC(=O)c1ccc(-c2nccc3[nH]c(-c4n[nH]c5ccc(-c6cncc(NC(=O)C7CCCCC7)c6)cc45)nc23)s1 [Compound 386, N-(5-(3-(4-(5-Acetylthiophen-2-yl)-1H-imidazo[4,5-c]pyridin-2-yl)-1H-indazol-5-yl)pyridin-3-yl)cyclohexanecarboxamide] | 476 | 536
CCNCc1cncc(-c2ccc3[nH]nc(-c4nc5c(-c6cc(F)cc(NCCN(C)C)c6)nccc5[nH]4)c3c2)c1 [Compound 422, N^1-(3-(2-(5-(5-((Ethylamino)methyl)pyridin-3-yl)-1H-indazol-3-yl)-1H-imidazo[4,5-c]pyridin-4-yl)-5-fluorophenyl)-N^2,N^2-dimethylethane-1,2-diamine] | 108 | 108
CC(=O)c1ccc(-c2nccc3[nH]c(-c4n[nH]c5ccc(-c6cncc(NC(=O)Cc7ccccc7)c6)cc45)nc23)s1 [Compound 374, N-(5-(3-(4-(5-Acetylthiophen-2-yl)-1H-imidazo[4,5-c]pyridin-2-yl)-1H-indazol-5-yl)pyridin-3-yl)-2-phenylacetamide] | 9 | 9
FC1(F)CCN(Cc2cncc(-c3ccc4[nH]nc(-c5nc6c(N7CCCCC7)nccc6[nH]5)c4c3)c2)C1 [Compound 181, 2-(5-(5-((3,3-Difluoropyrrolidin-1-yl)methyl)pyridin-3-yl)-1H-indazol-3-yl)-4-(piperidin-1-yl)-1H-imidazo[4,5-c]pyridine] | 67 | 80.5
CN(C)CCNc1cc(F)cc(-c2nccc3[nH]c(-c4n[nH]c5ccc(-c6cncc(CNCC7CCCC7)c6)cc45)nc23)c1 [Compound 440, N^1-(3-(2-(5-(5-(((Cyclopentylmethyl)amino)methyl)pyridin-3-yl)-1H-indazol-3-yl)-1H-imidazo[4,5-c]pyridin-4-yl)-5-fluorophenyl)-N^2,N^2-dimethylethane-1,2-diamine] | 539 | 9
c1ccc(-c2nccc3[nH]c(-c4n[nH]c5ccc(-c6cncc(CNCC7CCCC7)c6)cc45)nc23)nc1 [Compound 154, 1-Cyclopentyl-N-((5-(3-(4-(pyridin-2-yl)-1H-imidazo[4,5-c]pyridin-2-yl)-1H-indazol-5-yl)pyridin-3-yl)methyl)methanamine] | 61 | 61
CCCCC(=O)Nc1cncc(-c2ccc3[nH]nc(-c4nc5c(-c6ccoc6)nccc5[nH]4)c3c2)c1 [Compound 278, N-(5-(3-(4-(Furan-3-yl)-1H-imidazo[4,5-c]pyridin-2-yl)-1H-indazol-5-yl)pyridin-3-yl)pentanamide] | 15 | 291
CN1CCN(c2nccc3[nH]c(-c4n[nH]c5ccc(-c6cncnc6)cc45)nc23)CC1 [Compound 234, 4-(4-Methylpiperazin-1-yl)-2-(5-(pyrimidin-5-yl)-1H-indazol-3-yl)-1H-imidazo[4,5-c]pyridine] | 21 | 280
c1ccc(CNCc2cncc(-c3ccc4[nH]nc(-c5nc6c(-c7ccsc7)nccc6[nH]5)c4c3)c2)cc1 [Compound 257, N-Benzyl-1-(5-(3-(4-(thiophen-3-yl)-1H-imidazo[4,5-c]pyridin-2-yl)-1H-indazol-5-yl)pyridin-3-yl)methanamine] | 7 | 9
Fc1cccc(-c2nccc3[nH]c(-c4n[nH]c5ccc(C6=CCNCC6)cc45)nc23)c1 [Compound 1770, 4-(3-Fluorophenyl)-2-(5-(1,2,3,6-tetrahydropyridin-4-yl)-1H-indazol-3-yl)-1H-imidazo[4,5-c]pyridine] | 658 | 9990
CCC(=O)Nc1cncc(-c2ccc3[nH]nc(-c4nc5c(-c6cccs6)nccc5[nH]4)c3c2)c1 [Compound 287, N-(5-(3-(4-(Thiophen-2-yl)-1H-imidazo[4,5-c]pyridin-2-yl)-1H-indazol-5-yl)pyridin-3-yl)propionamide] | 10 | 62
